Measurements reported in US20160175225A1, “Peptides and Their Use in the Treatment of Skin” (AVON PRODUCTS, INC., priority 2014, published 2016).

Columns and labels:
[1] = system: Human dermal fibroblast cells; assay: Pro-collagen I secretion by human dermal fibroblasts (HTRF human pro-collagen I kit); format: cell-based; conditions: percent change relative to vehicle control, 48 h
Experimental: (§1) Human dermal fibroblast cells were grown in a 96 well plate in DMEM media (available from Corning, N.Y.) supplemented with 10% Fetal Bovine Serum (FBS) and L-glutamine (0.07×10^5 cells/plate). After reaching about 75% confluence, cells were transferred into DMEM media without FBS and incubated for 4-6 hours. Next, cells were treated with a peptide at 0.00001%, 0.0001%, 0.001% final concentration in DMEM media without FBS for 48 h. After treatment the media were collected, and cell viability was measured using MTT. Amount of collagen secreted was tested in the media using HTRF human pro-collagen I kit (available from Cisbio Inc., Bedford, Mass.). Amount of secreted Hyaluronic Acid (HA) was tested in the media using HA Elisa kit (available from Corgenix, Broomfield, Colo.).
(§2) Results are summarized in Table 5 below as percent change of pro-collagen I and/or HA production relative to vehicle control using the following keys with the peptide concentration provided in parentheses: […]

[2] = system: Human dermal fibroblast cells; assay: Hyaluronic acid (HA) secretion by human dermal fibroblasts (HA Elisa kit); format: cell-based; conditions: percent change relative to vehicle control, 48 h
Experimental: as §1, §2

[3] = concentration not given (tested at 0.00001%, 0.0001%, 0.001%)

| Substance | Increase in Pro-Collagen I Production [1, 3] | Increase in HA Production [2, 3] | Increase in HA Production ([2]; peptide concentration 0.001%) | also measured |
| --- | --- | --- | --- | --- |
| QPED: peptide sequence QPED, origin GDF11, tested in Table 5 | 0 (0: <10%) | 0 (0: <20%) |  |  |
| NRNV: peptide sequence NRNV, origin PDGF, tested in Table 5 | 0 (0: <10%) | 0 (0: <20%) |  |  |
| Met-Val-Val (MVV) [peptide derived from GDF11] | 0 (0: <10%) |  |  | Increase in HA Production ([2]; peptide concentration 0.0001%): + (0.0001%) (+: 20-50%) |
| RKIE: peptide sequence RKIE, origin PDGF, tested in Table 5 | 0 (0: <10%) | 0 (0: <20%) |  |  |
| LENTKRS | 0 (0: <10%) | 0 (0: <20%) |  |  |
| EASAEPE | 0 (0: <10%) | 0 (0: <20%) |  |  |
| TAKDGAP [Thr-Ala-Lys-Asp-Gly-Ala-Pro, peptide derived from CTGF] |  |  | ++ (0.001%) (++:50-90%) | Increase in Pro-Collagen I Production ([1]; peptide concentration 0.00001%): + (0.00001%) (+: 10-30%) |
| QILSKLRL [Gln-Ile-Leu-Ser-Lys-Leu-Arg-Leu, peptide derived from GDF11 and TGFβ] |  | 0 (0: <20%) |  | Increase in Pro-Collagen I Production ([1]; peptide concentration 0.001%): + (0.001%) (+: 10-30%) |
| Leu-Arg-Leu-Lys (LRLK) [peptide derived from GDF11 and TGFβ] | 0 (0: <10%) |  | + (0.001%) (+: 20-50%) |  |
| Ala-Glu-Cys-Lys (AECK) [peptide derived from PDGF] | 0 (0: <10%) |  | +++ (0.001%) (+++:90-150%) |  |
| GDALQPE | 0 (0: <10%) | 0 (0: <20%) |  |  |
| IFGGTVYRS [Ile-Phe-Gly-Gly-Thr-Val-Tyr-Arg-Ser, peptide derived from CTGF] |  |  | ++ (0.001%) (++:50-90%) | Increase in Pro-Collagen I Production ([1]; peptide concentration 0.001%): + (0.001%) (+: 10-30%) |
| RTPKISKPIKFELSG [Arg-Thr-Pro-Lys-Ile-Ser-Lys-Pro-Ile-Lys-Phe-Glu-Leu-Ser-Gly, peptide derived from CTGF] | 0 (0: <10%) |  | + (0.001%) (+: 20-50%) |  |
